Source: US20120129919A1, “POLYCATIONIC AMPHIPHILIC CYCLOOLIGOSACCHARIDES AND THE USE THEREOF AS MOLECULAR TRANSPORTERS” (priority 2009, published 2012)

What was measured:
DNA of pEGFP-N3 = experiment: Gel electrophoresis shift assay (binding/complexation of pDNA); settings: pEGFP-N3 plasmid, N/P ratios between 0 and 10, FIG. 3
Protocol: Plasmid pEGFP-N3, used for the preparation of the DNA complexes and the transfection assay, is a 4729-bp (base pairs) plasmid. The quantities of polycationic amphiphilic βCD derivatives used were calculated on the basis of the desired DNA concentration, 0.02 mg/ml (50 μM phosphate), the N/P ratio, the molecular weight and the number of positive charges in the selected CD derivative. The experiments were performed for N/P 5, 10, 30 and 50. The DNA was diluted in milli-Q water to a final phosphate concentration of 50 μM; subsequently, the desired quantity of CD derivative was added from a 20-mg/ml solution (1:2 of Me2SO-water). The preparation was stirred with a vortex for a few seconds and incubated for 30 minutes.
The binding capacity of the polycationic amphiphilic DNA-βCD complex was analysed by gel electrophoresis. The stock solutions of βCD derivatives were prepared in 1:2 Me2SO-water, and the DNA was dissolved in 150 mM NaCl. The DNA of pEGFP-N3 (10 μl at 0.1 μg/μl) was mixed with an equal volume of βCD derivative using N/P ratios ranging between 0 and 10, and incubated for 30 min at room temperature prior to the addition of loading buffer (2 μl). One aliquot (5 μl) of each sample was subjected to agarose gel electrophoresis (0.8% w/v) in TAE buffer (40 mM Tris-acetate, 1 mM EDTA). The electrophoresis was performed at 7 V/cm and the gels were stained with ethidium bromide following the electrophoresis. The quantification of the intensity of the bands was performed with the NIH Image software (Rasband et al. 1995. Microbeam Analysis Soc. J. 4, 137-149). A value of 100 was assigned to the intensity of the band for naked DNA.

CHO-k1 cells = experiment: In vitro gene transfection of pEGFP-N3 complexes, GFP fluorescence; format: cell-based, Chinese hamster; settings: pEGFP-N3 plasmid, N/P ratios between 0.1 and 20, FIG. 5
Protocol: Ovarian cells of wild-type Chinese hamsters (CHO-k1; no. ATCC CCL-61) were cultured in Dulbecco's modified Eagle's medium (DMEM) supplemented with 10% (v/v) of foetal bovine serum, 2 mM glutamine plus, 100 U/ml of penicillin and […] of streptomycin. Prior to the transfection, the cells were seeded in 24 well plates and incubated for 24 h, to reach an 80%-90% cell confluence. For the transfection experiments, plasmid pEGFP-N3 (1 μg) was mixed with the corresponding CD derivative at N/P ratios ranging between 0.1 and 20, at room temperature for 20 minutes, in a final volume of 20 μl. The mixture was diluted to 0.5 ml with DMEM without serum and added to each well. The untransfected cells and the naked pEGFP-N3 were used as negative controls. As a positive control, a transfection experiment was performed using 1 μl of Lipofectamine™ 2000 (Invitrogen) and 1.0 μg of DNA, following the manufacturer's instructions. The cells were incubated with the DNA-polycationic amphiphilic βCD mixtures for 18 h; subsequently, the transfection medium was eliminated and the cells were further cultured in DMEM medium plus 10% FBS for an additional 48-h period.
The transfected cells were washed three times with PBS and 600 μl of 0.5% triton X-100 in PBS. The plates were stirred for 10 min at room temperature, the lysate was recovered and the fluorescence was quantified in a Shimadzu RF-5301PC fluorimeter with an excitation wavelength of 460 nm (5 nm) and an emission wavelength of 510 nm (10 nm). The protein concentration was measured using the Bio-Rad protein assay (Hercules, Calif., USA).

[1] = tested on: DNA of pEGFP-N3 (DNase I digestion); experiment: DNase protection assay of pDNA complexes; settings: for protection of pDNA against degradation by DNase: pEGFP-N3 complexes, N/P=5, DNase I 45 minutes at 37° C., FIG. 4
Protocol: The DNA of pEGFP-N3 (10 μl at 0.1 μg/μl) was mixed with an equal volume of stock solution of βCD derivative using N/P=5, and incubated for 30 min at room temperature. 15 μl of a DNase I solution (0.1 mg/ml in 50 mM Tris-HCl, pH 8, 2000 U/mg) were added to the mixture and it was incubated for 45 minutes at 37° C. Following the digestion, 20 μl of a 10% SDS solution were added and the samples were incubated for 2 h at 85° C. Finally, one aliquot (20 μl) of each sample was subjected to agarose gel electrophoresis (0.8% w/v) in TAE buffer.

Heptakis[6-(4-(2,2-diaminoethylaminomethyl)-1H-1,2,3-triazole-1-yl)-6-deoxy-2,3-di-O-hexanoyl]cyclomaltoheptaose tetradecahydrochloride [Compound 10]
complexation capacity / compaction of pDNA, stability of the CD:pDNA complex (DNA of pEGFP-N3): stable 10:pDNA complexes | transfection efficiency (CHO-k1 cells): surprisingly high transfection efficiencies, analogous to those obtained using Lipofectamine™ 2000 | protection of pDNA against the environment ([1]; 10:pDNA complexes, N/P values greater than 4): complete protection

Heptakis[6-(4-(2,2-diaminoethyl)aminomethyl)-1H-1,2,3-triazole-1-yl)-6-deoxy-2,3-di-O-myristoyl]cyclomaltoheptaose [Compound 11]
complexation capacity / compaction of pDNA, stability of the CD:pDNA complex (DNA of pEGFP-N3): did not modify the complexation efficiency | transfection efficiency (CHO-k1 cells): drastically reduced the transfection capacity

Heptakis[6(2-(4-aminomethyl-1H-1,2,3-triazole-1-yl)acetamidoethylthio)-6-deoxy-2,3-di-O-hexanoyl]cyclomaltoheptaose [Compound 16]
complexation capacity / compaction of pDNA, stability of the CD:pDNA complex (DNA of pEGFP-N3): moderate increases | transfection efficiency (CHO-k1 cells): moderate increases | protection of pDNA against degradation by DNase [1]: moderate increases

Heptakis[6-(4-aminomethyl-1H-1,2,3-triazole-1-yl)-6-deoxy-2,3-di-O-hexanoyl]cyclomaltoheptaose heptahydrochloride [Compound 9]
complexation capacity / compaction of pDNA, stability of the CD:pDNA complex (DNA of pEGFP-N3): improved complexation capacities of pDNA as compared to non-amphiphilic analogue 18 | transfection efficiency (CHO-k1 cells): transfection levels remained very low | protection of pDNA against degradation by DNase [1]: plasmid still remains accessible to DNase

Heptakis[6(2-(4-(2,2-diaminoethylaminomethyl)-1H-1,2,3-triazole-1-yl)acetamidoethylthio)-6-deoxy-2,3-di-O-hexanoyl]cyclomaltoheptaose [Compound 17]
complexation capacity / compaction of pDNA, stability of the CD:pDNA complex (DNA of pEGFP-N3): the rigid motif was more advantageous than the flexible architecture | transfection efficiency (CHO-k1 cells): the rigid motif was more advantageous than the flexible architecture | protection of pDNA against degradation by DNase [1]: the rigid motif was more advantageous than the flexible architecture
